In test [1] the target is T1, NLRP3 (Homo sapiens, UniProt Q96P20). The test is described as follows: THP-1 cells pyroptosis assay (LPS + nigericin, resazurin readout; THP IC50). Type of test: cell-based. Also on record: Seed THP-1 cells (25,000 cells/well) containing 1.0 μg/ml LPS in 40 μl of RPMI medium; host or cells: THP-1 cells. Put shortly:
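IC50 from 4-parameter fit of resazurin fluorescence (100 μM, 1-2 hrs), reflecting surviving cells after pyroptosis. LPS-primed (1 μg/ml) THP-1 cells in FBS-free RPMI got compound for 3 hrs at 37° C (top 10 μM, half-log, 8 points), then nigericin 5 μM for 1 hr.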
For orientation: The colour change of resazurin is a common sign of viable cells or microbes.

The target in test [2] is T1, NLRP3. In words: Human whole blood IL1β release assay (LPS + nigericin, AlphaLisa IL-1β; HWB IC50). Type of test: cell-based. More on the design: Human whole blood in Li-heparin tubes was obtained from healthy donors from a volunteer donor panel; from tissue; host or cells: human whole blood from healthy donors. To be noted: IL-1β release. The procedure: For systemic delivery, the ability to inhibit NLRP3 when the compounds are present within the bloodstream is of great importance. For this reason, the NLRP3 inhibitory activity of a number of compounds in human whole blood was investigated in accordance with the following protocol.
Human whole blood in Li-heparin tubes was obtained from healthy donors from a volunteer donor panel. • 1. Plate out 80 μl of whole blood containing 1 μg/ml of LPS in 96-well, clear bottom cell culture plate (Corning #3585) • 2. Add 10 μl compound (8 points half-log dilution with 10 μM top dose) or vehicle (DMSO 0.1% FAC) to the appropriate wells • 3. Incubate for 3 hrs at 37° C., 5% CO2 • 4. Add 10 μl nigericin (Sigma #N7143) (10 μM FAC) to all wells • 5. Incubate for 1 hr at 37° C., 5% CO2 • 6. At the end of the incubation period, spin plates at 300×g for 5 mins to pellet cells and remove 20 μl of supernatant and add to 96-well v-bottom plates for IL-1β analysis (note: these plates containing the supernatants can be stored at −80° C. to be analysed at a later date) • 7. IL-1β was measured according to the manufacturer protocol (Perkin Elmer-AlphaLisa IL-1 Kit AL220F-5000) • 8. IC50 data is fitted to a non-linear regression equation (log inhibitor vs response-variable slope 4-parameters)
A general note: Alpha assays give light when donor and acceptor beads are brought close together.

Counter-ions that a name gives are not always drawn.

T1 sequence (Q96P20 whole entry): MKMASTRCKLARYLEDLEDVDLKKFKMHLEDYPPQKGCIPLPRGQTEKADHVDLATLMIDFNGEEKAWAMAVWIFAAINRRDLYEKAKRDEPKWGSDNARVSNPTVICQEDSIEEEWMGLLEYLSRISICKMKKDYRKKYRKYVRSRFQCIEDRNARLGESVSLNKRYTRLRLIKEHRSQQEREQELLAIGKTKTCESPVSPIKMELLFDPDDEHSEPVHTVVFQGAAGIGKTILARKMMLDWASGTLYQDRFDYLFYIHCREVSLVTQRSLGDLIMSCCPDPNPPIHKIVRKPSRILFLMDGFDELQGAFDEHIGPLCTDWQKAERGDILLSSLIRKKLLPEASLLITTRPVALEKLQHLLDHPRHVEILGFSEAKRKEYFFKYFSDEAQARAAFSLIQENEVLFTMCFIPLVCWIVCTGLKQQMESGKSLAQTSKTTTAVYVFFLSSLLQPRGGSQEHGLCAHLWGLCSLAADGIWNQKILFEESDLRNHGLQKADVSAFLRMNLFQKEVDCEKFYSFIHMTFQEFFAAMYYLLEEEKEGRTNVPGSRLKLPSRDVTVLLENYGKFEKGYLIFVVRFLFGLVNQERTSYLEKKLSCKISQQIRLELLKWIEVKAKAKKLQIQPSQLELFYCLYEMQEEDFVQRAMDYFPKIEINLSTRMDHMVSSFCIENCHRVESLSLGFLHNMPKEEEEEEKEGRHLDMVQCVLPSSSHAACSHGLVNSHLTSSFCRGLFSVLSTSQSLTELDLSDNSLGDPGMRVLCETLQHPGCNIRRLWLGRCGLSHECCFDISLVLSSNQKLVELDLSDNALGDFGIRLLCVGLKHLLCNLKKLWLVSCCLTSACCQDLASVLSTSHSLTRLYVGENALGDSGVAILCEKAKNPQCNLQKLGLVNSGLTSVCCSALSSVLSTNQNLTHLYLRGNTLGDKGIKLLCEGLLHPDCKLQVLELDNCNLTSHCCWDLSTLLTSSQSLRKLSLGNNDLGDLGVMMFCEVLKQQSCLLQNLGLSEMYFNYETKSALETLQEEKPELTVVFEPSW

Broadly, the IC50 is the concentration needed to halve the response being measured. In the case of `COc1cc(-c2cc(F)cc(C(C)C)c2NC(=O)NS(=O)(=O)c2ccn(C(C)C)n2)ccn1` [Example 12, N-((4-Fluoro-2-iso-propyl-6-(2-methoxypyridin-4-yl)phenyl)carbamoyl)-1-iso-propyl-1H-pyrazole-3-sulfonamide, partial ammonium salt], the IC50 in test [1] is no more than 500 nM; in test [2] it was no more than 1000 nM.

For the compound `CC(C)c1cc(F)cc(-c2ccnc(N)c2)c1NC(=O)NS(=O)(=O)c1ccn(C(C)C)n1` [Example 23, N-((2-(2-Aminopyridin-4-yl)-4-fluoro-6-isopropylphenyl)carbamoyl)-1-iso-propyl-1H-pyrazole-3-sulfonamide], the values for the half-inhibitory concentration (IC50) in test [1] and in test [2] were no more than 500 nM and no more than 1000 nM, respectively.

With `CCOc1cc(-c2cc(F)cc(C(C)C)c2NC(=O)NS(=O)(=O)c2ccn(C(C)C)n2)ccn1` [Example 24, N-((2-(2-Ethoxypyridin-4-yl)-4-fluoro-6-iso-propylphenyl)carbamoyl)-1-iso-propyl-1H-pyrazole-3-sulfonamide], the results for the IC50 in test [1] and in test [2] were no more than 500 nM and no more than 1000 nM, respectively.

For `CC(C)Oc1cc(-c2cc(F)cc(C(C)C)c2NC(=O)NS(=O)(=O)c2ccn(C(C)C)n2)ccn1` [Example 27, N-((4-Fluoro-2-(2-isopropoxypyridin-4-yl)-6-iso-propyl-phenyl)carbamoyl)-1-iso-propyl-1H-pyrazole-3-sulfonamide], the IC50 is no more than 500 nM in test [1] and no more than 5000 nM in test [2].

`CC(C)c1cc(F)cc(-c2cncnc2)c1NC(=O)NS(=O)(=O)c1cc(C(=O)N(C)C)n(C)n1` [Example 32, 3-(N-((4-Fluoro-2-iso-propyl-6-(pyrimidin-5-yl)phenyl)carbamoyl)sulfamoyl)-N,N,1-trimethyl-1H-pyrazole-5-carboxamide, sodium salt]: the IC50 in test [1] and in test [2] was no more than 500 nM each time.

With `COC(C)(C)c1cc(S(=O)(=O)NC(=O)Nc2c(-c3cccnc3)cc(F)cc2C(C)C)nn1C` [Example 35, N-((4-Fluoro-2-iso-propyl-6-(pyridin-3-yl)phenyl)carbamoyl)-5-(2-methoxypropan-2-yl)-1-methyl-1H-pyrazole-3-sulfonamide], the IC50 in test [1] is no more than 500 nM; in test [2], no more than 1000 nM.

Take `CC(C)c1cc(F)cc(-c2cccc(C#N)c2)c1NC(=O)NS(=O)(=O)c1cc(CN(C)C)n(C(C)C)n1` [Example 39, N-((3′-Cyano-5-fluoro-3-iso-propyl-[1,1′-biphenyl]-2-yl)carbamoyl)-5-((dimethylamino)methyl)-1-isopropyl-1H-pyrazole-3-sulfonamide]: the IC50 in test [1] and in test [2] was no more than 1000 nM in each case.

Take `CC(C)c1cc(F)cc(-c2ccccc2)c1NC(=O)NS(=O)(=O)c1cc(CN(C)C)n(C)n1` [Example 40, 5-((Dimethylamino)methyl)-N-((5-fluoro-3-iso-propyl-[1,1′-biphenyl]-2-yl)carbamoyl)-1-methyl-1H-pyrazole-3-sulfonamide]: the results for the IC50 in test [1] and in test [2] were no more than 500 nM and no more than 1000 nM, respectively.

With `CC(C)c1cc(F)cc(-c2cccnc2)c1NC(=O)NS(=O)(=O)c1cc(CN(C)C)n(C(C)C)n1` [Example 41, 5-((Dimethylamino)methyl)-N-((4-fluoro-2-iso-propyl-6-(pyridin-3-yl)phenyl)carbamoyl)-1-iso-propyl-1H-pyrazole-3-sulfonamide], the values for the IC50 in test [1] and in test [2] were no more than 500 nM and no more than 1000 nM, respectively.

On to `CCN1CCC(S(=O)(=O)NC(=O)Nc2c(-c3ccncc3)ccc3c2CCC3)CC1` [Example 101, 1-Ethyl-N-((5-(pyridin-4-yl)-2,3-dihydro-1H-inden-4-yl)carbamoyl)piperidine-4-sulfonamide, potassium salt], for which the IC50 in test [2] is no more than 1000 nM.

`COc1cc(-c2ccc3c(c2NC(=O)NS(=O)(=O)c2ccn(C(C)C)n2)CCC3)cc(C)n1` [Example 238, 1-Isopropyl-N-((5-(2-methoxy-6-methylpyridin-4-yl)-2,3-dihydro-1H-inden-4-yl)carbamoyl)-1H-pyrazole-3-sulfonamide, sodium salt]: the IC50 in test [1] is no more than 5000 nM.

With `CC(C)n1ccc(S(=O)(=O)NC(=O)Nc2c(-c3cncn3C)ccc3c2CCC3)n1` [Example 240, 1-Isopropyl-N-((5-(1-methyl-1H-imidazol-5-yl)-2,3-dihydro-1H-inden-4-yl)carbamoyl)-1H-pyrazole-3-sulfonamide], the IC50 in test [1] is no more than 5000 nM.

Take `CC(C)n1ccc(S(=O)(=O)NC(=O)Nc2c(-c3cncnc3)ccc3c2CCC3)n1` [Example 241, 1-Isopropyl-N-((5-(pyrimidin-5-yl)-2,3-dihydro-1H-inden-4-yl)carbamoyl)-1H-pyrazole-3-sulfonamide]: the IC50 in test [1] was no more than 5000 nM.

On to `O=C(Nc1c(C2CCOCC2)ccc2c1CCC2)NS(=O)(=O)c1ccn(C2CC2)n1` [Example 254, 1-Cyclopropyl-N-((5-(tetrahydro-2H-pyran-4-yl)-2,3-dihydro-1H-inden-4-yl)carbamoyl)-1H-pyrazole-3-sulfonamide], for which the IC50 in test [1] was no more than 5000 nM.

With `COc1cc(-c2ccc3c(c2NC(=O)NS(=O)(=O)OC(C)C)CCC3)ccn1` [Example 256, Isopropyl (5-(2-methoxypyridin-4-yl)-2,3-dihydro-1H-inden-4-yl)carbamoylsulfamate, sodium salt], the IC50 in test [1] is no more than 1000 nM.

Turning to `Cn1cc(-c2ccc3c(c2NC(=O)NS(=O)(=O)c2ccn(C4CC4)n2)CCC3)ccc1=O` [Example 268, 1-Cyclopropyl-N-((5-(1-methyl-6-oxo-1,6-dihydropyridin-3-yl)-2,3-dihydro-1H-inden-4-yl)carbamoyl)-1H-pyrazole-3-sulfonamide], in test [1], the IC50 was no more than 5000 nM.

For `Cn1ccc(-c2ccc3c(c2NC(=O)NS(=O)(=O)c2ccn(C4CC4)n2)CCC3)cc1=O` [Example 272, 1-Cyclopropyl-N-((5-(1-methyl-2-oxo-1,2-dihydropyridin-4-yl)-2,3-dihydro-1H-inden-4-yl)carbamoyl)-1H-pyrazole-3-sulfonamide, sodium salt], the half-maximal inhibitory concentration (IC50) in test [1] was no more than 5000 nM.

As to `O=C(Nc1c2c(nn1-c1ccncc1)CCC2)NS(=O)(=O)c1ccn(C2CC2)n1` [Example 273, 1-Cyclopropyl-N-((2-(pyridin-4-yl)-2,4,5,6-tetrahydrocyclopenta[c]pyrazol-3-yl)carbamoyl)-1H-pyrazole-3-sulfonamide], in test [1], the IC50 is no more than 5000 nM.

As for `CC(C)n1ccc(S(=O)(=O)NC(=O)Nc2c(-c3ccnc4c3CCO4)ccc3c2CCC3)n1` [Example 283, N-((5-(2,3-Dihydrofuro[2,3-b]pyridin-4-yl)-2,3-dihydro-1H-inden-4-yl)carbamoyl)-1-isopropyl-1H-pyrazole-3-sulfonamide], the IC50 in test [1] is no more than 5000 nM.

Regarding `CC(=O)Nc1cc(-c2ccc3c(c2NC(=O)NS(=O)(=O)c2ccn(C(C)C)n2)CCC3)ccn1` [Example 297, N-(4-(4-(3-((1-Isopropyl-1H-pyrazol-3-yl)sulfonyl)ureido)-2,3-dihydro-1H-inden-5-yl)pyridin-2-yl)acetamide, sodium salt], in test [1], the half-maximal inhibitory concentration (IC50) is no more than 1000 nM.

With `CC(C)n1ccc(S(=O)(=O)NC(=O)Nc2c(-c3ccnc(OC4CCN(C)C4)c3)ccc3c2CCC3)n1` (stereo not shown) [Example 301, 1-Isopropyl-N-((5-(2-((1-methylpyrrolidin-3-yl)oxy)pyridin-4-yl)-2,3-dihydro-1H-inden-4-yl)carbamoyl)-1H-pyrazole-3-sulfonamide, sodium salt], the half-inhibitory concentration (IC50) in test [1] is no more than 1000 nM.

As to `CC(C)n1ccc(S(=O)(=O)NC(=O)Nc2c(-c3ccnc(OCCN(C)C)c3)ccc3c2CCC3)n1` [Example 302, N-((5-(2-(2-(Dimethylamino)ethoxy)pyridin-4-yl)-2,3-dihydro-1H-inden-4-yl)carbamoyl)-1-isopropyl-1H-pyrazole-3-sulfonamide, sodium salt], in test [1], the IC50 was no more than 5000 nM.

As to `COc1cc(-c2ccc3c(c2NC(=O)NS(=O)(=O)c2ccc(C(=O)N(C)C)cc2)CCO3)ccn1` [Example 309, 4-(N-((5-(2-Methoxypyridyl-4-yl)-2,3-dihydrobenzofuran-4-yl)carbamoyl)sulfamoyl)-N,N-dimethylbenzamide, sodium salt], the IC50 in test [1] is no more than 5000 nM.

Consider `CC(C)c1cc(F)cc(-c2ccnc(C#N)c2)c1NC(=O)NS(=O)(=O)N1CC2CCN(C)C2C1` (stereo not shown) [Example 319, N-((2-(2-Cyanopyridin-4-yl)-4-fluoro-6-isopropylphenyl)carbamoyl)-1-methylhexahydropyrrolo[3,4-b]pyrrole-5(1H)-sulfonamide], for which the IC50 in test [1] is no more than 10000 nM.

As to `COc1cc(-n2nc3c(c2NC(=O)NS(=O)(=O)c2cc(C(C)(C)O)co2)CCC3)ccn1` [Example 322, 4-(2-Hydroxypropan-2-yl)-N-((2-(2-methoxypyridin-4-yl)-2,4,5,6-tetrahydrocyclopenta[c]pyrazol-3-yl)carbamoyl)furan-2-sulfonamide], the IC50 in test [1] was no more than 5000 nM.
